This assay addresses T1, dimethylarginine dimethylaminohydrolase (DDAH) (Pseudomonas aeruginosa, UniProt Q9I4E3).
T1 sequence (Q9I4E3 1-254): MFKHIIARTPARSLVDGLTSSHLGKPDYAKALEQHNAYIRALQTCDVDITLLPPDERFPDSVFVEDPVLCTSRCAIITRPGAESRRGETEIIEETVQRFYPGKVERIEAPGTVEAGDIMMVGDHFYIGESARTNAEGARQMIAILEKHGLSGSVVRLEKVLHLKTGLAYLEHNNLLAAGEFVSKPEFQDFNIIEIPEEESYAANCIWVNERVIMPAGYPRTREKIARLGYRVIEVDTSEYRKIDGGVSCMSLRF
In words: time-dependent inactivation kinetics. The following applies: read-out: Ki. The class given is biochemical.

The structures appear in SMILES notation.

`Cc1cc(Br)ccn1` [compound 1, 4-bromo-2-methylpyridine]: the KI (inactivation) came out at 2600 ± 800 µM.

(Values after publication PMC3038607 (Journal of the American Chemical Society, 2011).)
